The supplement of paper PMC11061612

How the values were obtained:
Experiment in all cases: combination Emax (second highest fraction inhibited in the dose matrix, 72 h); higher = more inhibition; extreme values may be limits of the assay
[1] = test system: OS-RC-2 (Kidney Carcinoma)
Summary of the method: (§1)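 Bliss excess equals the observed combination effect minus the expected value EA + EB − EA·EB, where EA and EB are the effects of each agent alone. Combination Emax is the second-highest inhibition within the matrix. Inhibition was scaled from CellTiter-Glo 2.0 luminescence, with 0 set by vehicle wells and 1 by blank wells, after 72 hours of two-drug dosing of cells plated in 1536-well plates.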

U-2-OS (Osteosarcoma) = test system: U-2-OS (Osteosarcoma)
Summary of the method: as §1

[2] = test system: NCI-H1650 (Lung Adenocarcinoma)
Summary of the method: as §1

[3] = test system: ONS-76 (Other Solid Carcinomas)
Summary of the method: as §1

[4] = test system: VCaP (Prostate Carcinoma)
Summary of the method: as §1

NY (Osteosarcoma) = test system: NY (Osteosarcoma)
Summary of the method: as §1

LN-405 (Glioblastoma) = test system: LN-405 (Glioblastoma)
Summary of the method: as §1

[5] = test system: SK-MG-1 (Low Grade Glioma)
Summary of the method: as §1

PA-1 (Ovarian Carcinoma) = test system: PA-1 (Ovarian Carcinoma)
Summary of the method: as §1

[6] = test system: NCI-H1581 (Non-Small Cell Lung Carcinoma)
Summary of the method: as §1

GI-ME-N (Neuroblastoma) = test system: GI-ME-N (Neuroblastoma)
Summary of the method: as §1

CAS-1 (Glioblastoma) = test system: CAS-1 (Glioblastoma)
Summary of the method: as §1

[7] = test system: TT (Thyroid Gland Carcinoma)
Summary of the method: as §1

[8] = test system: CCK-81 (Colorectal Carcinoma)
Summary of the method: as §1

[9] = test system: CAPAN-2 (Pancreatic Carcinoma)
Summary of the method: as §1

[10] = test system: COLO-824 (Breast Carcinoma)
Summary of the method: as §1

[11] = test system: CAL-29 (Bladder Carcinoma)
Summary of the method: as §1

[12] = test system: JSC-1 (B-Cell Non-Hodgkin's Lymphoma)
Summary of the method: as §1

[13] = test system: SISO (Cervical Carcinoma)
Summary of the method: as §1

[14] = test system: A549 (Lung Adenocarcinoma)
Summary of the method: as §1

Compound	combination Emax [1]	combination Emax (U-2-OS (Osteosarcoma))	combination Emax [2]	combination Emax [3]	combination Emax [4]	combination Emax (NY (Osteosarcoma))	combination Emax (LN-405 (Glioblastoma))	combination Emax [5]	combination Emax (PA-1 (Ovarian Carcinoma))	combination Emax [6]	combination Emax (GI-ME-N (Neuroblastoma))	combination Emax (CAS-1 (Glioblastoma))	combination Emax [7]	combination Emax [8]	combination Emax [9]	combination Emax [10]	combination Emax [11]	combination Emax [12]	combination Emax [13]	combination Emax [14]
CCN(CCO)CCCOc1ccc2c(Nc3cc(CC(=O)Nc4cccc(F)c4)[nH]n3)ncnc2c1 [AZD2811] + C[C@@H]1COCCN1C2=NC(=NC(=C2)C3(CC3)[S@](=N)(=O)C)C4=C5C=CNC5=NC=C4 [AZD6738] (first compound max 1 µM, 7x7, partner max 10 µM)	0.429	0.642	0.414	0.908	0.289	0.619	0.46	0.515	0.795	0.474	0.552	0.544	0.475	0.891	0.29	0.802	0.67	0.744	0.551	0.775
COc1nnc2ccc(N3CCC(c4ccc(OCCN5CCN(C)C(=O)[C@H]5C)cc4)CC3)nn12 [AZD5153] + Cn1cnc2c(F)c(Nc3ccc(Br)cc3Cl)c(C(=O)NOCCO)cc21 [Selumetinib] (first compound max 1 µM, 7x7, partner max 10 µM)	0.343	0.628	0.441	0.697	0.797	0.52	0.332	0.467	0.91	0.599	0.349	0.599	0.524	1	0.452	0.694	0.595	0.805	0.452	0.917
CC1(C)CCC(CN2CCN(c3ccc(C(=O)NS(=O)(=O)c4ccc(NCC5CCOCC5)c([N+](=O)[O-])c4)c(Oc4cnc5[nH]ccc5c4)c3)CC2)=C(c2ccc(Cl)cc2)C1 [Venetoclax] + COc1cc(Nc2ncc3c(n2)-c2ccc(Cl)cc2C(c2c(F)cccc2OC)=NC3)ccc1C(=O)O [Alisertib] (first compound max 1 µM, 7x7, partner max 10 µM)	0.319	0.4	0.493	0.553	0.305	0.654	0.513	0.365	0.927	0.698	0.327	0.744	0.573	0.318	0.244	1	0.364	0.377	0.543	0.721
CCN(CCO)CCCOc1ccc2c(Nc3cc(CC(=O)Nc4cccc(F)c4)[nH]n3)ncnc2c1 [AZD2811] + O=C(c1cc(Cc2n[nH]c(=O)c3ccccc23)ccc1F)N1CCN(C(=O)C2CC2)CC1 [Olaparib] (first compound max 1 µM, 7x7, partner max 10 µM)	0.178	0.219	0.249	0.398	0.224	0.169	0.192	0.405	0.545	0.344	0.196	0.255	0.458	0.254	0.184	0.797	0.288	0.213	0.454	0.58
CC1(C)CCC(CN2CCN(c3ccc(C(=O)NS(=O)(=O)c4ccc(NCC5CCOCC5)c([N+](=O)[O-])c4)c(Oc4cnc5[nH]ccc5c4)c3)CC2)=C(c2ccc(Cl)cc2)C1 [Venetoclax] + C[C@@H]1COCCN1C2=NC(=NC(=C2)C3(CC3)[S@](=N)(=O)C)C4=C5C=CNC5=NC=C4 [AZD6738] (first compound max 1 µM, 7x7, partner max 10 µM)	0.399	0.586	0.402	0.865	0.428	0.708	0.483	0.535	0.827	0.451	0.459	0.623	0.702	0.846	0.319	0.944	0.689	0.882	0.532	0.716
CN(C)CCCOc1ccc(-c2ccc3ncc4c(c3c2)n(C2CCOCC2)c(=O)n4C)cn1 [AZD0156] + O=C(c1cc(Cc2n[nH]c(=O)c3ccccc23)ccc1F)N1CCN(C(=O)C2CC2)CC1 [Olaparib] (first compound max 3 µM, partner max 3 µM)	0.269	0.201	0.226	0.235	0.296	0.338	0.182	0.319	0.479	0.412	0.193	0.449	0.237	0.394	0.291	0.383	0.319	0.582	0.303	0.374
COc1cccc2c1C(=O)c1c(O)c3c(c(O)c1C2=O)C[C@@](O)(C(=O)CO)C[C@@H]3O[C@H]1C[C@H](N)[C@H](O)[C@H](C)O1 [Doxorubicin] + Cc1cc2ncnn2cc1Nc1ncc2c(n1)n(C1CCOCC1)c(=O)n2C [AZD7648] (first compound max 1 µM, 7x7, partner max 10 µM)	0.348	0.55	0.591	0.935	0.641	0.581	0.335	0.802	0.892	0.866	0.812	0.775	0.604	0.477	0.197	0.501	0.735	0.97	0.909	0.906
